What all share (format): cell-based
For one assay, the target named is T1, Kir3.1/Kir3.2 (Homo sapiens, UniProt P48051+P48549).
T1 sequence (P48549 whole entry): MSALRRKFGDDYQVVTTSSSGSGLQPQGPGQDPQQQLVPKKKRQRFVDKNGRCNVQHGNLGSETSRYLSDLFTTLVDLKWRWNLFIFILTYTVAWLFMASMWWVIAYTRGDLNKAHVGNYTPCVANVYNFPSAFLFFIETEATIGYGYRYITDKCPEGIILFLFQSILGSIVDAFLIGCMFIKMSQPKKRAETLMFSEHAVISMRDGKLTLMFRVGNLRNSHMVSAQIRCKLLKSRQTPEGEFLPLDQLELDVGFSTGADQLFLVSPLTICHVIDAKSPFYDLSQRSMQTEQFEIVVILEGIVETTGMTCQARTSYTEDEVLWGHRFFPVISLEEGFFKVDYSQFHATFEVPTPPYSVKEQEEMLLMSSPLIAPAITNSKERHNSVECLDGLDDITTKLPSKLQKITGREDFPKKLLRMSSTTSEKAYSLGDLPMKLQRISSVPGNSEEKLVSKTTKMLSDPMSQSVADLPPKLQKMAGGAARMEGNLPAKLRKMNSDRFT
T1 sequence (P48051 whole entry): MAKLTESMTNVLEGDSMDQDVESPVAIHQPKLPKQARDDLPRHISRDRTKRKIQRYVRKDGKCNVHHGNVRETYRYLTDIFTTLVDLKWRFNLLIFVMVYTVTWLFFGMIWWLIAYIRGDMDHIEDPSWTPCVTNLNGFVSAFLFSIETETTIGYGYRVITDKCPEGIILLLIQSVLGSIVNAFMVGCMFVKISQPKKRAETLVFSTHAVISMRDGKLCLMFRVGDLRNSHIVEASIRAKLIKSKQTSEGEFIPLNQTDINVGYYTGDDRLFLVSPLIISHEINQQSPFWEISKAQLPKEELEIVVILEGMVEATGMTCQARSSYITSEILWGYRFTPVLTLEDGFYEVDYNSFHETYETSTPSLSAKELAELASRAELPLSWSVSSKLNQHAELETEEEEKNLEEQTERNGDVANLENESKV
The assay is described as follows: Activation of human GIRK1/2 expressed in HEK293 cells co-expressing rat mGlu8 by thallium flux assay.

For assay [1], the target named is Kir3.1/Kir3.4 (Homo sapiens) (UniProt P48549+P48544). In words: Activation of human GIRK1/4 expressed in HEK293 cells co-expressing rat mGlu8 by thallium flux assay relative to control.
For the next assay, the target named is T2, Kir3.1/Kir3.4 (Homo sapiens, UniProt P48544+P48549).
T2 sequence (P48549 whole entry): T1 sequence (P48549 whole entry)
T2 sequence (P48544 whole entry): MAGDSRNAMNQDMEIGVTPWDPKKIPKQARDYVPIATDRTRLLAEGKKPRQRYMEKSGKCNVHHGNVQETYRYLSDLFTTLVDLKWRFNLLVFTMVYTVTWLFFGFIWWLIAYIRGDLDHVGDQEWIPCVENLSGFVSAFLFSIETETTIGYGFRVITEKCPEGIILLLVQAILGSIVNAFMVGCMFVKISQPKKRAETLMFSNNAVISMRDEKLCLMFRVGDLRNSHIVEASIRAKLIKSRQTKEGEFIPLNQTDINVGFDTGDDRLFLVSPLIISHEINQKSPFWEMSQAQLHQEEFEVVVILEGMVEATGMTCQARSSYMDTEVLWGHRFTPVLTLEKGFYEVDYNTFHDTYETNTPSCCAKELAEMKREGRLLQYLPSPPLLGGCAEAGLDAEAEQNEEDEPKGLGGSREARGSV
The assay is described as follows: Activation of human GIRK1/4 expressed in HEK293 cells co-expressing rat mGlu8 by thallium flux assay.

Assay [2] addresses Kir3.1/Kir3.2 (Homo sapiens) (UniProt P48549+P48051). The assay is described as follows: Activation of human GIRK1/2 expressed in HEK293 cells co-expressing rat mGlu8 by thallium flux assay relative to control.

As a reminder, the EC50 is the concentration giving half of the maximal effect. For orientation: Emax means the size of the effect at its maximum, as opposed to the concentration needed. As to `Cc1cc(NC(=O)Cc2coc(-c3ccccc3)n2)n(C2CCCCC2)n1`, the 50% effective concentration (EC50) at Kir3.1/Kir3.2 is greater than 11000 nM; at Kir3.1/Kir3.4, 3980 nM. For the same molecule, the Emax in assay [1] is 22%; in assay [2] it was greater than 69%.
Take `Cc1cc(NC(=O)Cc2nnc(-c3ccccc3)s2)n(C2CCCCC2)n1`: the half-maximal effective concentration (EC50) was greater than 3000 nM at Kir3.1/Kir3.2 and greater than 10000 nM on Kir3.1/Kir3.4. Also, the values for the Emax in assay [1] and in assay [2] were greater than 21% and greater than 60%, respectively.
As to `Cc1cc(NC(=O)Cn2nnc(-c3ccnc(F)c3)n2)n(C2CCCCC2)n1`, the EC50 on Kir3.1/Kir3.2 was determined as 441 nM; at Kir3.1/Kir3.4 it was 1340 nM. In addition, the Emax in assay [1] turned out to be 68%; in assay [2], 95%.
For `Cc1cc(NC(=O)Cc2ccc(-c3ccc(Cl)c(Cl)c3)cc2)n(C2CCCCC2)n1`, in that order: 4470 nM, 4350 nM, 11% and 49%.
The corresponding values for `Cc1cc(NC(=O)Cn2nnc(-c3cccc(C#N)c3)n2)n(C2CCCCC2)n1` are 183 nM, 619 nM, 55% and 80%.
For `COc1cccc(-c2nnn(CC(=O)Nc3cc(C)nn3C3CCCCC3)n2)c1`, the EC50 was found to be 117 nM at Kir3.1/Kir3.2 and 299 nM on Kir3.1/Kir3.4. In addition, the Emax turned out to be 40% in assay [1] and 76% in assay [2].
For `O=C(Cn1nnc(-c2ccccc2)n1)Nc1cc(C2CC2)nn1C1CCCCC1`, in that order: 271 nM, 659 nM, 15% and 45%.
Turning to `Cc1cc(NC(=O)Cc2ncc(-c3ccccc3)o2)n(C2CCCCC2)n1`, the EC50 came out at 631 nM on Kir3.1/Kir3.2 and 1130 nM at Kir3.1/Kir3.4. The figures for the Emax in assay [1] and in assay [2] were 27% and 72%, respectively.
For `Cc1cc(NC(=O)Cn2nnc(-c3ccccc3F)n2)n(C2CCCCC2)n1`, in that order: 187 nM, 447 nM, 60% and 88%.
For `Cc1cc(NC(=O)Cn2nnc(-c3ccccc3)n2)n(-c2ccccc2)n1`, in that order: 3020 nM, 4090 nM, 25% and 66%.
Regarding `CC1CC1c1cc(NC(=O)Cn2nnc(-c3ccccc3)n2)n(C2CCCCC2)n1` (stereo not given), the EC50 is 843 nM at Kir3.1/Kir3.2 and greater than 10000 nM at Kir3.1/Kir3.4. In addition, the Emax in assay [1] is greater than 19%; in assay [2] it was 78%.
For `Cc1cc(NC(=O)Cn2ccc(-c3ccccc3)n2)n(C2CCCCC2)n1`, in that order: 511 nM, 998 nM, 49% and 88%.
On to `Cc1cc(NC(=O)Cn2nnc(-c3ccccc3)n2)n(Cc2ccccc2)n1`, for which the EC50 on Kir3.1/Kir3.2 amounted to 495 nM; at Kir3.1/Kir3.4, 848 nM. Also, the figures for the maximal effect (Emax) in assay [1] and in assay [2] were 48% and 74%, respectively.
For `Cc1cc(NC(=O)Cn2nnc(-c3ccc(Cl)c(C)c3)n2)n(C2CCCCC2)n1`, in that order: 712 nM, 1510 nM, 51% and 89%.
For `Cc1cccc(-c2nnn(CC(=O)Nc3cc(C)nn3C3CCCCC3)n2)c1`, in that order: 129 nM, 435 nM, 63% and 93%.
The corresponding values for `Cc1ccc(-c2nnn(CC(=O)Nc3cc(C)nn3C3CCCCC3)n2)cc1` are 111 nM, 408 nM, 64% and 86%.
Consider `Cc1cc(NC(=O)Cn2nnc(-c3ccc(C(F)(F)F)cc3)n2)n(C2CCCCC2)n1`, for which the concentration giving a half-maximal response (EC50) on Kir3.1/Kir3.2 is 241 nM; on Kir3.1/Kir3.4, 448 nM. Further, the results for the Emax in assay [1] and in assay [2] were 50% and 94%, respectively.
For `Cc1cc(NC(=O)Cn2nnc(-c3ccc(F)cc3)n2)n(C2CCCCC2)n1`, in that order: 180 nM, 634 nM, 74% and 92%.
The corresponding values for `Cc1cc(NC(=O)Cn2nnc(C3CC3)n2)n(C2CCCCC2)n1` are greater than 3000 nM, greater than 10000 nM, greater than 25% and greater than 68%.
Regarding `O=C(Cn1nnc(-c2ccccc2)n1)NC1CC2CCC1C2` (stereo not given), the EC50 stood at 1980 nM on Kir3.1/Kir3.2 and 2760 nM at Kir3.1/Kir3.4. For the same molecule, the maximal response (Emax) in assay [1] was determined as 7%; in assay [2], 13%.
With `CCC(C)n1nc(C)cc1NC(=O)Cn1nnc(-c2ccccc2)n1` (stereo not given), the half-maximal effective concentration (EC50) was greater than 5000 nM on Kir3.1/Kir3.2 and greater than 10000 nM at Kir3.1/Kir3.4. Also, the Emax in assay [1] is greater than 20%; in assay [2] it was greater than 69%.
For `Cc1cc(NC(=O)Cn2cc(-c3ccccc3)cn2)n(C2CCCCC2)n1`, the results for the EC50 on Kir3.1/Kir3.2 and on Kir3.1/Kir3.4 were 65 nM and 348 nM, respectively. In addition, the Emax in assay [1] was determined as 52%; in assay [2], 72%.
For `Cc1cc(NC(=O)Cc2csc(-c3ccccc3)n2)n(C2CCCCC2)n1`, the EC50 is 1330 nM at Kir3.1/Kir3.2 and greater than 3000 nM on Kir3.1/Kir3.4. The Emax in assay [1] is greater than 18%; in assay [2] it was 44%.
For the molecule `Cc1cc(NC(=O)Cn2nnc(-c3ccccc3)n2)n(C2CC2)n1`, the EC50 at Kir3.1/Kir3.2 is greater than 5000 nM; at Kir3.1/Kir3.4, greater than 10000 nM. Moreover, the Emax in assay [1] was greater than 39%; in assay [2], greater than 78%.
For the molecule `Cc1cc(NC(=O)Cn2nnc(-c3ccccc3)n2)n(C2CCCC2)n1`, the EC50 at Kir3.1/Kir3.2 stood at 163 nM; on Kir3.1/Kir3.4, 612 nM. Besides, the Emax in assay [1] was 84%; in assay [2], 105%.
Consider `Cc1cc(NC(=O)Cn2nnc(-c3ccccn3)n2)n(C2CCCCC2)n1`, for which the EC50 on Kir3.1/Kir3.2 is 14600 nM; at Kir3.1/Kir3.4 it was greater than 33000 nM. In addition, the maximal response (Emax) in assay [1] was greater than 41%; in assay [2], 81%.
Take `Cc1cc(NC(=O)Cn2nnc(-c3cccc(F)n3)n2)n(C2CCCCC2)n1`: the EC50 is greater than 3000 nM on Kir3.1/Kir3.2 and greater than 10000 nM on Kir3.1/Kir3.4. For the same molecule, the maximal effect (Emax) is greater than 38% in assay [1] and greater than 83% in assay [2].
For the molecule `Cc1cc(NC(=O)Cn2nnc(-c3cccnc3)n2)n(C2CCCCC2)n1`, the EC50 on Kir3.1/Kir3.2 came out at 1930 nM; at Kir3.1/Kir3.4, 4910 nM. Moreover, the results for the Emax in assay [1] and in assay [2] were 80% and 96%, respectively.
The corresponding values for `Cc1cc(NC(=O)Cc2cccc(-c3ccccc3)c2)n(C2CCCCC2)n1` are 370 nM, greater than 4000 nM, greater than 51% and 72%.
The corresponding values for `Cc1cc(NC(=O)Cc2ccc(-c3ccccc3)cc2)n(C2CCCCC2)n1` are 1660 nM, 1820 nM, 20% and 69%.
With `Cc1cc(NC(=O)Cn2nnc(-c3cc(Cl)cc(Cl)c3)n2)n(C2CCCCC2)n1`, the EC50 came to 980 nM on Kir3.1/Kir3.2 and 2120 nM at Kir3.1/Kir3.4. Moreover, the Emax was determined as 51% in assay [1] and 82% in assay [2].
For `Cc1cc(NC(=O)Cn2nnc(-c3ccccc3)n2)n(C(C)C)n1`, in that order: 556 nM, greater than 4000 nM, greater than 96% and 107%.
With `Cc1cc(NC(=O)Cn2nnc(-c3ccccc3)n2)n(CC(F)(F)F)n1`, the EC50 was greater than 6000 nM at Kir3.1/Kir3.2 and greater than 10000 nM at Kir3.1/Kir3.4. Further, the Emax was greater than 97% in assay [1] and greater than 105% in assay [2].
The corresponding values for `Cc1cc(NC(=O)Cn2nnc(-c3ccccc3)n2)n(C2CCOCC2)n1` are 435 nM, 2040 nM, 109% and 115%.
The corresponding values for `Cc1cc(NC(=O)Cn2nnc(-c3cccc(C(F)(F)F)c3)n2)n(C2CCCCC2)n1` are 183 nM, 850 nM, 57% and 86%.

The record behind these values is ChEMBL document CHEMBL4422673, “Discovery, synthesis and characterization of a series of (1-alkyl-3-methyl-1H-pyrazol-5-yl)-2-(5-aryl-2H-tetrazol-2-yl)acetamides as novel GIRK1/2 potassium channel activators” (Bioorg Med Chem Lett, 2019).
